Measured values reported in US12569515B2, “Gold-containing agents for the treatment of lung infections” (Aurovir Pharma GmbH, priority 2020, dated 2026).

Key:
[1] = biological target: SARS-CoV-2 spike protein / ACE2 receptor interaction (Severe acute respiratory syndrome coronavirus 2, UniProt P0DTC2); experiment: Inhibition of the spike/ACE2 interaction by ELISA; assay type: binding
[2] = system: mouse model for acute allergic asthma; experiment: Anti-inflammatory action in a mouse model for acute allergic asthma, intranasal application
[3] = system: bovine coronavirus (BCoV); assay type: cell-based
[4] = system: CaLu-3 cells; experiment: Cytotoxicity in CaLu-3 cells (crystal violet, 24 hours); assay type: cell-based; details: for Cytotoxicity in CaLu-3 cells: concentrations of up to 100 μM, combinations with respect to AM or AG
Method: In order to determine the cytotoxicity, CaLu-3 cells were cultured in 96-well microtitre plates. The cell culture medium was replaced with fresh medium which contained the gold compounds in concentrations of 25, 50 or 100 μM and incubated for 24 hours at 37° C./5% CO2. Next, the remaining cells were photometrically determined using crystal violet stain (Victor X4 microplate reader). The quantity of cells in the treated samples was calculated as a percentage with respect to an untreated control.

[5] = biological target: T1, SARS-CoV-2 PLpro (Severe acute respiratory syndrome coronavirus 2, UniProt P0DTD1); experiment: Inhibition of SARS-CoV-2 protease PLpro (fluorogenic substrate Z-Arg-Leu-Arg-Gly-Gly-AMC); assay type: biochemical; details: 1 h preincubation at 37° C.; for the mixture with respect to the quantity of aurothioglucose
T1 construct: SARS-CoV-2 protease Papain-Like Protease (PLpro)

[6] = biological target: SARS-CoV-2 3CL protease (Mpro) (Severe acute respiratory syndrome coronavirus 2, UniProt P0DTD1); experiment: Inhibition of SARS-CoV-2 protease 3CLpro; assay type: biochemical; details: 1 h preincubation at 37° C.
Method: 50 μL of the test substance solutions or pure HEPES buffer (positive control) was respectively added thereto and the resulting solutions were mixed and incubated for one hour at 37° C.

[7] = biological target: T1, SARS-CoV-2 PLpro; experiment: Removal of zinc from PLpro (FluoZin-3 fluorescence); assay type: biochemical; details: 50 μM test compound, 500 nM PLpro, up to 90 minutes (FIG. 10)
Method: In addition to a cysteine in the catalytic centre of the enzyme, the protease Plpro contains further cysteines in a zinc binding domain which stabilise the structure and function of the enzyme. The removal of the bound zinc constitutes an interesting mechanism for the action of inhibitors for PLpro.
In order to establish whether the inhibitors are Zn-removing agents, the presence of the Zn^2+ cation in solution was determined as follows. The inhibitor compounds were prepared as stock solutions in DMSO, as stock solutions in water or DMSO and diluted one hundred-fold with HEPES buffer ([…], pH 7.5) to 100 μM concentrations. Volumes of 50 μL of SARSCoV-2 PLpro (Elabscience) in HEPES buffer or blank HEPES buffer (control for false positive results) were placed in the wells of a black 96-well microtitre plate (Nunclon, Nunc). Volumes of 50 μL of the inhibitor solutions or 1% DMSO in HEPES buffer (control) were added. […] The resulting solutions were mixed and the fluorescence emission was determined after 10 min, every 10 min over a period of 90 minutes, at 37° C. (λexc=485 nm, λem=535 nm); Victor X4 microtitre plate reader). The relative fluorescence was calculated by dividing the absolute fluorescence emission of the well which contained the inhibitor by the absolute fluorescence of the corresponding well which contained the enzyme but no inhibitor (control). […]

CC(=O)N[C@@H](CS)C(=O)O [N-acetylcysteine]
remaining activity at 100 µM ([1]; 100 μM, N-acetylcysteine alone, read-out: Spike/ACE2 interaction remaining, % of control): 97%

auroacetylcysteine
Total inflammatory cells in bronchial secretions, extent of respiratory tract inflammation, eosinophils and neutrophiles, inflammatory infiltrates in lung parenchyma ([2]; 10 mg/kg over 5 days): reduced
Inflammatory parameters peribronchially and in the parenchyma ([2]; 10 mg/kg, histology): reduced
Deaths in treatment group ([2]; AAC group, 5 mice): one death
Eosinophilic and neutrophilic granulocytes and lymphocytes ([2]; cell populations (FIG. 5)): reduced
Macrophages ([2]; cell populations (FIG. 5)): increased compared with dexamethasone
Total cell count in bronchoalveolar lavage ([2]; intranasal, compared with placebo and dexamethasone 1 mg/kg (FIG. 2)): comparable with dexamethasone
Anti-inflammatory effect in the tissue ([2]; versus dexamethasone 1 mg/kg): comparable with that of dexamethasone

NC(=O)c1nc(F)c[nH]c1=O [favipiravir]
Viral load formed on adding favipiravir [3]: reduction in the viral load

O=C(O)CC([S-])C(=O)O.[Au+] (centres unmarked) [aurothiomalate]
Cytotoxicity in CaLu-3 cells [4]: no relevant cytotoxicity
IC50 [5]: 0.6 µM
IC50 [6]: 22.9 µM

CC(=O)OC[C@H]1O[C@@H]([S-])[C@H](OC(C)=O)[C@@H](OC(C)=O)[C@@H]1OC(C)=O.CCP(CC)CC.[Au+] [auranofin]
Quantity of cells, % of the untreated control ([4]; 25 μM, CaLu-3 cells): < 20 % of the untreated control

OC[C@H]1O[C@H]([S-])[C@H](O)[C@@H](O)[C@@H]1O.[Au+] [aurothioglucose]
Cytotoxicity in CaLu-3 cells [4]: no relevant cytotoxicity
Affinity for the spike protein of SARS-CoV-2 virus [1]: high affinity
Inhibition of the spike/ACE2 interaction ([1]; 20 μM aurothioglucose (FIG. 8)): resulted in an inhibition
Reduction in the viral load ([3]; 256 μM aurothioglucose, preincubated 1 h with 100 TCID50 BCoV, MDBK cells, 12-48 hours): 10 fold
Removal of zinc from PLpro [7]: comparable with the reference compound disulfiram
IC50 [5]: 7.03 µM
IC50 [6]: 8.25 µM
